Some test systems named below: SR leukemia; PC-3 prostate; DU-145 prostate; IGROV1 ovarian; SNB-19 CNS; HCT-116 colon; A498 renal; SK-MEL-28 melanoma; OVCAR-5 ovarian; KM12 colon.
What all share (experiment): inhibition of tumour cell growth, NCI panel, 48 h

The record followed here is PubChem BioAssay (NCI).

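Compound exposure: 48 hours, 5 concentrations, 96-well plates. The concentration for 50% growth inhibition is given as GI50. TGI marks complete inhibition of growth.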 Where only a bound is given, the exact number is not on record here.

In the case of `CCCCCCCCCCCCCCCC(=O)OCC(COP(=O)(O)OCCNC(=O)CCSSc1ccccn1)OC(=O)CCCCCCCCCCCCCCC` (stereo not given), the TGI with SR leukemia, in the test with PC-3 prostate, with DU-145 prostate, in the test with IGROV1 ovarian, in the test with SNB-19 CNS and with HCT-116 colon was over 100 µM each time. Besides, the TGI in the test on A498 renal, in the test with SK-MEL-28 melanoma, with OVCAR-5 ovarian and with KM12 colon was over 100 µM each time.
Turning to `CCCCCNC(=O)OC1CCn2c1nc1c2C(=O)C(C)=C(N2CC2)C1=O` (stereo not given), the TGI with SR leukemia was over 100 µM; in the test on PC-3 prostate, 2.39 µM; with DU-145 prostate, 2.37 µM; in the test on IGROV1 ovarian it was 3.43 µM; in the test with SNB-19 CNS, 11.5 µM; with HCT-116 colon, 4.33 µM. The TGI with A498 renal stood at 3.31 µM; in the test on SK-MEL-28 melanoma, 2.78 µM; in the test on OVCAR-5 ovarian, 7.77 µM; in the test with KM12 colon, 3.48 µM.
Take `CC1SCCc2nc3ccccc3n21` (stereo not given): the TGI in the test on SR leukemia, in the test on PC-3 prostate, with DU-145 prostate, in the test on IGROV1 ovarian, with SNB-19 CNS and with HCT-116 colon was over 100 µM throughout. The TGI in the test with A498 renal, in the test on SK-MEL-28 melanoma, with OVCAR-5 ovarian and in the test with KM12 colon was over 100 µM each time.
As to `Cc1cc(N(CCCl)CCCl)ccc1/C=N\NC(=O)c1cccnc1`, the GI50 in the test on SR leukemia was 4.81 µM; in the test on PC-3 prostate, 22.7 µM; in the test with DU-145 prostate, 15.1 µM; in the test with IGROV1 ovarian it was 35.9 µM; in the test on SNB-19 CNS, over 100 µM; with HCT-116 colon, 26.9 µM. For the same molecule, the GI50 in the test on A498 renal is 1.42 µM; in the test with SK-MEL-28 melanoma it was 43.4 µM; with OVCAR-5 ovarian it was 12 µM; in the test with KM12 colon, 34.4 µM. Further, the TGI with SR leukemia is over 100 µM; in the test with PC-3 prostate, over 100 µM; in the test on DU-145 prostate it was 99 µM; in the test with IGROV1 ovarian it was over 100 µM; in the test with SNB-19 CNS, over 100 µM; in the test on HCT-116 colon it was over 100 µM. Moreover, the TGI with A498 renal was 2.92 µM; in the test on SK-MEL-28 melanoma, over 100 µM; in the test on OVCAR-5 ovarian, 60 µM; with KM12 colon, over 100 µM.
`O=C(NCc1ccc(Cl)c(Cl)c1)c1nc2ccccc2nc1NCc1ccc(Cl)c(Cl)c1`: the TGI in the test on SR leukemia, in the test on PC-3 prostate, with DU-145 prostate, in the test on IGROV1 ovarian, with SNB-19 CNS and in the test on HCT-116 colon was over 100 µM each time. The TGI in the test with A498 renal, with SK-MEL-28 melanoma, in the test on OVCAR-5 ovarian and with KM12 colon was over 100 µM each time.
With `CCN(CCCl)c1ccc(NC(=O)c2cc(C(=O)NCCN(C)C)cc(C(=O)Nc3ccc(N(CC)CCCl)cc3)c2)cc1`, the TGI in the test with SR leukemia was over 100 µM; with PC-3 prostate, 16.3 µM; in the test on DU-145 prostate, 39.2 µM; with IGROV1 ovarian, 29.1 µM; in the test with SNB-19 CNS, 19.9 µM; in the test on HCT-116 colon it was 22.3 µM. For the same molecule, the TGI came to 43.1 µM in the test on A498 renal, 41.4 µM in the test on SK-MEL-28 melanoma, 87.1 µM in the test with OVCAR-5 ovarian and 25.4 µM with KM12 colon.
`Cc1cc(NS(=O)(=O)c2ccc(NC(NC(=O)OC(C)C)(C(F)(F)F)C(F)(F)F)cc2)nc(C)n1`: the TGI in the test on SR leukemia, in the test on PC-3 prostate, with DU-145 prostate, in the test on IGROV1 ovarian, in the test on SNB-19 CNS and in the test with HCT-116 colon was over 100 µM each time. The TGI in the test on A498 renal, with SK-MEL-28 melanoma, in the test on OVCAR-5 ovarian and in the test with KM12 colon was over 100 µM throughout.
As for `O=C(C[N+]1(c2ccccc2)CCOCC1)c1ccccc1`, the TGI with SR leukemia, with PC-3 prostate, in the test with DU-145 prostate, in the test with IGROV1 ovarian, in the test with SNB-19 CNS and with HCT-116 colon was over 100 µM throughout. The TGI was over 100 µM in the test on A498 renal, 0.0908 µM in the test on SK-MEL-28 melanoma, over 100 µM with OVCAR-5 ovarian and over 100 µM with KM12 colon.
